Reference: ChEMBL document CHEMBL4118135, “Optimized allosteric inhibition of engineered protein tyrosine phosphatases with an expanded palette of biarsenical small molecules” (Bioorg Med Chem, 2018)
Activity calls are given as the source filed them. No cut-off for these calls is given here.

Key:
[1] = molecular target: T1, Tyrosine-protein phosphatase non-receptor type 1 (Homo sapiens) (UniProt P18031); test: Inhibition of His6-tagged human wild-type PTP1B catalytic domain at 2000 nM using pNPP as substrate incubated for 90 mins by quenched phosphatase activity assay
T1 sequence (whole entry): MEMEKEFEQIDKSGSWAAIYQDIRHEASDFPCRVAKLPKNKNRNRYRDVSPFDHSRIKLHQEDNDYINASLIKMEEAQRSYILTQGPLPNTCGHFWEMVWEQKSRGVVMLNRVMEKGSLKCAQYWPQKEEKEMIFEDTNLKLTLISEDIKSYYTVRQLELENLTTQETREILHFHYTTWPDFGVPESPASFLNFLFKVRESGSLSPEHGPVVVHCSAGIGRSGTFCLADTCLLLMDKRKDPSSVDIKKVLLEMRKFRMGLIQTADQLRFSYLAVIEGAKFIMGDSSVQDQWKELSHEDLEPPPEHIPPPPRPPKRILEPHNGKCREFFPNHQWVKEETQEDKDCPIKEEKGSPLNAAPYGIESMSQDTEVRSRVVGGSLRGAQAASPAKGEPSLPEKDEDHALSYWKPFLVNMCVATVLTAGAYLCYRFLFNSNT

[2] = molecular target: Tyrosine-protein phosphatase non-receptor type 13 (Homo sapiens) (UniProt Q12923); test: Inhibition of allosterically sensitized mutant form of His6-tagged human FAP1 catalytic domain using pNPP as substrate after 90 mins by quenched phosphatase activity assay
Sequence of Tyrosine-protein phosphatase non-receptor type 13 (Homo sapiens) (Q12923 whole entry, the tested form may be a part): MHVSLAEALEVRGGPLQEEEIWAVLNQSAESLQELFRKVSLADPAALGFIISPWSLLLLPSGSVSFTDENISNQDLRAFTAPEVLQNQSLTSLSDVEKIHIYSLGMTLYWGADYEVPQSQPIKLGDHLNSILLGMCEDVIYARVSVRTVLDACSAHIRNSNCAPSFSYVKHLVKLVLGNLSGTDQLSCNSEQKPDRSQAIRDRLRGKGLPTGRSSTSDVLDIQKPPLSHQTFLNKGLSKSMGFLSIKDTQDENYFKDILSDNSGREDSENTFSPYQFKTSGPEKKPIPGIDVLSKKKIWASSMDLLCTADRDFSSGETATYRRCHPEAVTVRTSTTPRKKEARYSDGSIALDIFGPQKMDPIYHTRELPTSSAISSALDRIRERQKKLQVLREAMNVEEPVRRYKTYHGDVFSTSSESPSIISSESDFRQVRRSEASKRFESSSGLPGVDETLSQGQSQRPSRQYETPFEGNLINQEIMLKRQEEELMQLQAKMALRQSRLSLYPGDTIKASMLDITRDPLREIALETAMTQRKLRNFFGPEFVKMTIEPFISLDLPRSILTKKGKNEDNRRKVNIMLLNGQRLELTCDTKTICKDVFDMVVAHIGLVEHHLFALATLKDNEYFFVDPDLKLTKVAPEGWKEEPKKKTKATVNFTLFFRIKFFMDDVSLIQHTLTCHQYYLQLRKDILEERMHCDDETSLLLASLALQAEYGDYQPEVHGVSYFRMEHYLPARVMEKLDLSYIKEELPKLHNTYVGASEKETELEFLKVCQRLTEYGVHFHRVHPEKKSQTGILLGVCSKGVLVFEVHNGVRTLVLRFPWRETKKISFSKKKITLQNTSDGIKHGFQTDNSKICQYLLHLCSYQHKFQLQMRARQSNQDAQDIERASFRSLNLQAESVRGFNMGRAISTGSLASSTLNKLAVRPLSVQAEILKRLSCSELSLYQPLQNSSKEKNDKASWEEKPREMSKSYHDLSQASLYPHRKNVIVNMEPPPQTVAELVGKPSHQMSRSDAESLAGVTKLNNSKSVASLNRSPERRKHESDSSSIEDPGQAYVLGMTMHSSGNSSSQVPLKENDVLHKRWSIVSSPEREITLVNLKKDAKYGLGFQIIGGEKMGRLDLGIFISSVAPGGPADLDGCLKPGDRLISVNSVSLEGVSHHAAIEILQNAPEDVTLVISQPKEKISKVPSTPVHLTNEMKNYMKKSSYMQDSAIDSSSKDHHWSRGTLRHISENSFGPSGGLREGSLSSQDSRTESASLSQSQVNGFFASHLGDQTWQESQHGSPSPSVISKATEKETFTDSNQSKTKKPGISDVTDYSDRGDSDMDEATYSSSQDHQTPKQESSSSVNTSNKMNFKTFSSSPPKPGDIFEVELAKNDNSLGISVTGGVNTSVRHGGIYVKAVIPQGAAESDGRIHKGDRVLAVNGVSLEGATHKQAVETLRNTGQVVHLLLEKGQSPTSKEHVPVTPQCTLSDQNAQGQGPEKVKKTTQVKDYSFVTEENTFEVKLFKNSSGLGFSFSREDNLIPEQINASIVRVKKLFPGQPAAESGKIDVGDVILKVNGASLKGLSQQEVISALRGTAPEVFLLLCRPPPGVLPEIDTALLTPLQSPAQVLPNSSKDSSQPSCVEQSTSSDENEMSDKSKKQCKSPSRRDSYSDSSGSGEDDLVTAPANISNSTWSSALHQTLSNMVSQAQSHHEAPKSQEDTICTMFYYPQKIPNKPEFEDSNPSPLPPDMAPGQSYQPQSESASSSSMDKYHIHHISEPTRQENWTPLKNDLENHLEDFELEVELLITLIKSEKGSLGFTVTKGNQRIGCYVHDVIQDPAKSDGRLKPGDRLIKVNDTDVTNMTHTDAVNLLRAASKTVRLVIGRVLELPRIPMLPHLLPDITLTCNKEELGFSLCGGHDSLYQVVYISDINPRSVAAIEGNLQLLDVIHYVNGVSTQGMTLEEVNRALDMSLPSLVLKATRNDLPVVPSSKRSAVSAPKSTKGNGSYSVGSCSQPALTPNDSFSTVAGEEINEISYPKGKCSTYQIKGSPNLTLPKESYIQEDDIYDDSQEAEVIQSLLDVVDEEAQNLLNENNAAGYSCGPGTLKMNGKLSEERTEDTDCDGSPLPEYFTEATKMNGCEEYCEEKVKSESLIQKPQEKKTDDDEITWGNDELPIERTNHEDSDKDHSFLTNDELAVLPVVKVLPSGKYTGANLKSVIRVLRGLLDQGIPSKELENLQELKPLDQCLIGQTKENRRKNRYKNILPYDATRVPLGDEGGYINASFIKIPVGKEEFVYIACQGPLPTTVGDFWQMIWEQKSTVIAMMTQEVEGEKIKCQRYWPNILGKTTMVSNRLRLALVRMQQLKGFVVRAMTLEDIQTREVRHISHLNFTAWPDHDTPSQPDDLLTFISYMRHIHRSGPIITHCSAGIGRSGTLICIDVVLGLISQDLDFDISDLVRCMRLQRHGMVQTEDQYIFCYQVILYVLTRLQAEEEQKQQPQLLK

[3] = molecular target: T2, Tyrosine-protein phosphatase non-receptor type 11 (Homo sapiens) (UniProt Q06124); test: Inhibition of allosterically sensitized mutant form of His6-tagged human SHP2 catalytic domain using pNPP as substrate after 90 mins by quenched phosphatase activity assay
T2 sequence (whole entry): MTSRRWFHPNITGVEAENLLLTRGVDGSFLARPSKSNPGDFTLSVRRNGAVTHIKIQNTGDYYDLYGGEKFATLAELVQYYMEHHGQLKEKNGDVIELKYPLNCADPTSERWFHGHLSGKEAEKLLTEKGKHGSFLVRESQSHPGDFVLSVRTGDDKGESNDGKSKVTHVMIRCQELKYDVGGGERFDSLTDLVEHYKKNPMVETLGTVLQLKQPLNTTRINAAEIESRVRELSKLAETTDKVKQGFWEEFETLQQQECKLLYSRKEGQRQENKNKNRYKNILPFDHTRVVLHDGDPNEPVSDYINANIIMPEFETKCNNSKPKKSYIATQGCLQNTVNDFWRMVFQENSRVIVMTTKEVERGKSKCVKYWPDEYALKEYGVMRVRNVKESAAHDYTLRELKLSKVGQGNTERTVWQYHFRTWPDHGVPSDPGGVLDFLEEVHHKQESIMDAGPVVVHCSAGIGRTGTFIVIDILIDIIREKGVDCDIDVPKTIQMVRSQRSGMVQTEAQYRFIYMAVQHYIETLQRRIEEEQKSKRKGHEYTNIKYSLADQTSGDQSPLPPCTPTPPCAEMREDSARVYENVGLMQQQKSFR

Row | SMILES | inhibition [1] | inhibition [2] | inhibition [3]
1 | CC1(C)C(/C=C/C=C2/N(CCCCS(=O)(=O)O)c3ccc([As]4SCCS4)cc3C2(C)C)=[N+](CCCCS(=O)(=O)O)c2ccc([As]3SCCS3)cc21 | inactive |  | 
2 | O=C(O)c1ccccc1-c1c2ccc(=O)c([As]3SCCS3)c-2oc2c([As]3SCCS3)c(O)ccc12 |  | Dose-dependent effect | Dose-dependent effect
